Test system: MV-4-11 cells
Test: Gene expression microarray analysis (Affymetrix PrimeView) and GSEA
Format: cell-based, human
Parameters: RFU PODN (11730768_x_at) / Fold change /veh PODN (11730768_x_at) / RFU LINC00158 (11744669_a_at) / Fold change /veh LINC00158 (11744669_a_at) / RFU DUSP10 (11751237_a_at) / Fold change /veh DUSP10 (11751237_a_at) / RFU ID3 (11757404_x_at) / Fold change /veh ID3 (11757404_x_at) / RFU PLEKHG5 (11737974_s_at) / Fold change /veh PLEKHG5 (11737974_s_at) / RFU LRRC4B (11730491_at) / Fold change /veh LRRC4B (11730491_at) / RFU GIMAP4 (11747438_a_at) / Fold change /veh GIMAP4 (11747438_a_at) / RFU KRT8 (11758183_x_at) / Fold change /veh KRT8 (11758183_x_at) / RFU CNN1 (11734310_a_at) / Fold change /veh CNN1 (11734310_a_at) / RFU VPS37D (11726825_at) / Fold change /veh VPS37D (11726825_at) / RFU C10orf10 (11716522_x_at) / Fold change /veh C10orf10 (11716522_x_at) / RFU KIR2DL2 /// KIR2DL4 /// KIR2DL5A /// KIR2DL5B /// KIR2DS1 /// KIR2DS2 /// KIR2DS3 /// KIR2DS4 /// KIR3DL3 /// KIR3DL3 /// KIR3DS1 (11738374_at) / Fold change /veh KIR2DL2 /// KIR2DL4 /// KIR2DL5A /// KIR2DL5B /// KIR2DS1 /// KIR2DS2 /// KIR2DS3 /// KIR2DS4 /// KIR3DL3 /// KIR3DL3 /// KIR3DS1 (11738374_at) / RFU C1QL1 (11718748_at) / Fold change /veh C1QL1 (11718748_at) / RFU TMPRSS4 (11747572_a_at) / Fold change /veh TMPRSS4 (11747572_a_at) / RFU HAMP (11756126_x_at) / Fold change /veh HAMP (11756126_x_at) / RFU RNFT2 (11725882_a_at) / Fold change /veh RNFT2 (11725882_a_at) / RFU NR4A2 (11747474_a_at) / Fold change /veh NR4A2 (11747474_a_at) / RFU ABCC12 (11746883_a_at) / Fold change /veh ABCC12 (11746883_a_at) / RFU TMEM136 (11760407_x_at) / Fold change /veh TMEM136 (11760407_x_at) / RFU CLDN22 /// WWC2 (11732394_at) / Fold change /veh CLDN22 /// WWC2 (11732394_at) / RFU HLA-DPB1 (11760878_x_at) / Fold change /veh HLA-DPB1 (11760878_x_at) / RFU SPINT1 (11716480_a_at) / Fold change /veh SPINT1 (11716480_a_at) / RFU GAP43 (11754022_s_at) / Fold change /veh GAP43 (11754022_s_at) / RFU A4GNT (11735810_at) / Fold change /veh A4GNT (11735810_at) / RFU PRB3 (11715151_x_at) / Fold change /veh PRB3 (11715151_x_at) / RFU TUBB4B (11761932_at) / Fold change /veh TUBB4B (11761932_at) / RFU CAPN14 (11732068_a_at) / Fold change /veh CAPN14 (11732068_a_at) / RFU TMCC2 (11721928_a_at) / Fold change /veh TMCC2 (11721928_a_at) / RFU IRGQ (11745062_a_at) / Fold change /veh IRGQ (11745062_a_at) / RFU FAM174B (11720279_a_at) / Fold change /veh FAM174B (11720279_a_at) / RFU TMPRSS4 (11748680_a_at) / Fold change /veh TMPRSS4 (11748680_a_at) / RFU FAM212B (11763350_a_at) / Fold change /veh FAM212B (11763350_a_at) / RFU PLEKHG5 (11743358_a_at) / Fold change /veh PLEKHG5 (11743358_a_at) / RFU ZSCAN30 (11745921_a_at) / Fold change /veh ZSCAN30 (11745921_a_at) / RFU CMKLR1 (11741424_a_at) / Fold change /veh CMKLR1 (11741424_a_at) / RFU LOC101060620 /// MAPK8IP1 (11723275_at) / Fold change /veh LOC101060620 /// MAPK8IP1 (11723275_at) / RFU SPTSSB (11747773_x_at) / Fold change /veh SPTSSB (11747773_x_at) / RFU PRSS12 (11739890_at) / Fold change /veh PRSS12 (11739890_at) / RFU BIN1 (11741810_x_at) / Fold change /veh BIN1 (11741810_x_at) / RFU WNT11 (11732464_a_at) / Fold change /veh WNT11 (11732464_a_at) / RFU C10orf10 (11716521_a_at) / Fold change /veh C10orf10 (11716521_a_at) / RFU C5orf56 (11738089_at) / Fold change /veh C5orf56 (11738089_at) / RFU CYB561 (11721691_x_at) / Fold change /veh CYB561 (11721691_x_at) / RFU ANKRD19P (11752326_a_at) / Fold change /veh ANKRD19P (11752326_a_at) / RFU OR2T12 /// OR2T33 /// OR2T8 (11738714_s_at) / Fold change /veh OR2T12 /// OR2T33 /// OR2T8 (11738714_s_at) / RFU VCAN (11748164_a_at) / Fold change /veh VCAN (11748164_a_at) / RFU JSRP1 (11732532_at) / Fold change /veh JSRP1 (11732532_at) / RFU KRTAP10-11 (11738290_x_at) / Fold change /veh KRTAP10-11 (11738290_x_at) / RFU MYO3A (11730013_a_at) / Fold change /veh MYO3A (11730013_a_at) / RFU EBF3 (11725865_a_at) / Fold change /veh EBF3 (11725865_a_at) / RFU CAMK2N1 (11719241_x_at) / Fold change /veh CAMK2N1 (11719241_x_at) / RFU C5orf56 (11738088_a_at) / Fold change /veh C5orf56 (11738088_a_at) / RFU OLFML3 (11715873_a_at) / Fold change /veh OLFML3 (11715873_a_at) / RFU LOC100653217 /// NTM (11731650_a_at) / Fold change /veh LOC100653217 /// NTM (11731650_a_at) / RFU MAPK11 (11762145_a_at) / Fold change /veh MAPK11 (11762145_a_at) / RFU FIZ1 (11724087_x_at) / Fold change /veh FIZ1 (11724087_x_at) / RFU OASL (11726364_x_at) / Fold change /veh OASL (11726364_x_at) / RFU SOX15 (11748057_x_at) / Fold change /veh SOX15 (11748057_x_at) / RFU CD79A (11719716_a_at) / Fold change /veh CD79A (11719716_a_at) / RFU HIST1H1D (11736915_at) / Fold change /veh HIST1H1D (11736915_at) / RFU CASKIN2 (11723855_a_at) / Fold change /veh CASKIN2 (11723855_a_at) / RFU LOC730098 (11760151_x_at) / Fold change /veh LOC730098 (11760151_x_at) / RFU OR4N2 (11742367_at) / Fold change /veh OR4N2 (11742367_at) / RFU PRRT2 (11749266_a_at) / Fold change /veh PRRT2 (11749266_a_at) / RFU SNX32 (11753110_a_at) / Fold change /veh SNX32 (11753110_a_at) / RFU CDHR5 (11726645_a_at) / Fold change /veh CDHR5 (11726645_a_at) / RFU RCAN1 (11760418_a_at) / Fold change /veh RCAN1 (11760418_a_at) / RFU FAM167A (11723789_a_at) / Fold change /veh FAM167A (11723789_a_at) / RFU FAM26E (11764081_at) / Fold change /veh FAM26E (11764081_at) / RFU ISYNA1 (11749810_s_at) / Fold change /veh ISYNA1 (11749810_s_at) / RFU ACY1 (11761880_at) / Fold change /veh ACY1 (11761880_at) / RFU 11764098_at / Fold change /veh 11764098_at / RFU SAMD14 (11745864_x_at) / Fold change /veh SAMD14 (11745864_x_at) / RFU NPB (11741838_a_at) / Fold change /veh NPB (11741838_a_at) / RFU TMPRSS6 (11731388_a_at) / Fold change /veh TMPRSS6 (11731388_a_at) / RFU KRTAP10-2 (11738614_at) / Fold change /veh KRTAP10-2 (11738614_at) / RFU ARHGAP8 /// PRR5-ARHGAP8 (11727945_x_at) / Fold change /veh ARHGAP8 /// PRR5-ARHGAP8 (11727945_x_at) / RFU KRTAP5-7 /// NADSYN1 (11734609_at) / Fold change /veh KRTAP5-7 /// NADSYN1 (11734609_at) / RFU RASL12 (11751679_a_at) / Fold change /veh RASL12 (11751679_a_at) / RFU CDKN2B (11736163_a_at) / Fold change /veh CDKN2B (11736163_a_at) / RFU PRF1 (11729649_at) / Fold change /veh PRF1 (11729649_at) / RFU, ZNF638 /// ZNF638-IT1 / Fold change vs veh, ZNF638 /// ZNF638-IT1 / RFU, PANK3 / Fold change vs veh, PANK3 / RFU, SH3YL1 / Fold change vs veh, SH3YL1 / RFU, ZEB2 / Fold change vs veh, ZEB2 / RFU, NRIP1 / Fold change vs veh, NRIP1 / RFU, PTTG1IP / Fold change vs veh, PTTG1IP / RFU, CAPN2 / Fold change vs veh, CAPN2 / RFU, MED14 / Fold change vs veh, MED14 / RFU, SNORA58 / Fold change vs veh, SNORA58 / RFU, C1orf63 / Fold change vs veh, C1orf63 / RFU, LRRFIP1 / Fold change vs veh, LRRFIP1 / RFU, NDUFAF7 / Fold change vs veh, NDUFAF7 / RFU, SLC12A2 / Fold change vs veh, SLC12A2 / RFU, IBTK / Fold change vs veh, IBTK / RFU, ESF1 / Fold change vs veh, ESF1 / Fold change vs veh, TMEM50B / RFU, TAOK1 / Fold change vs veh, TAOK1 / RFU, ACBD3 / Fold change vs veh, ACBD3 / RFU, TMA16 / Fold change vs veh, TMA16 / RFU, RWDD3 / Fold change vs veh, RWDD3 / RFU, BCAT1 / Fold change vs veh, BCAT1 / RFU, EDEM3 / Fold change vs veh, EDEM3 / RFU, TMEM33 / Fold change vs veh, TMEM33 / RFU, WDR75 / Fold change vs veh, WDR75 / RFU, AHCTF1 / Fold change vs veh, AHCTF1 / RFU, TFRC / Fold change vs veh, TFRC / RFU, ZDHHC17 / Fold change vs veh, ZDHHC17 / RFU, NOM1 / Fold change vs veh, NOM1 / RFU, ARL8B / Fold change vs veh, ARL8B / RFU, ZBTB11 / Fold change vs veh, ZBTB11 / RFU, TAMM41 / Fold change vs veh, TAMM41 / RFU, KIAA1704 /// LOC100996395 / Fold change vs veh, KIAA1704 /// LOC100996395 / RFU, ING1 / Fold change vs veh, ING1 / RFU, TRMT61B / Fold change vs veh, TRMT61B / RFU, FUBP3 / Fold change vs veh, FUBP3 / RFU, TP53 / Fold change vs veh, TP53 / RFU, TNKS2 / Fold change vs veh, TNKS2 / RFU, ZFP14 / Fold change vs veh, ZFP14 / RFU, ACTR2 / Fold change vs veh, ACTR2 / RFU, PPP3R1 / Fold change vs veh, PPP3R1 / RFU, PIK3R1 / Fold change vs veh, PIK3R1 / RFU, HNRNPA1 / Fold change vs veh, HNRNPA1 / RFU, RNF170 / Fold change vs veh, RNF170 / RFU, ZNF28 / Fold change vs veh, ZNF28 / RFU, RNGTT / Fold change vs veh, RNGTT / RFU, OGT / Fold change vs veh, OGT / RFU, BRD1 / Fold change vs veh, BRD1 / RFU, MARS / Fold change vs veh, MARS / RFU, ZNF655 / Fold change vs veh, ZNF655 / RFU, FAHD1 / Fold change vs veh, FAHD1 / RFU, BDP1 / Fold change vs veh, BDP1 / RFU, LRRCC1 / Fold change vs veh, LRRCC1 / RFU, ARID1A / Fold change vs veh, ARID1A / RFU, ZNF146 / Fold change vs veh, ZNF146 / RFU, ZNF330 / Fold change vs veh, ZNF330 / RFU, GPN3 / Fold change vs veh, GPN3 / RFU, C9orf123 / Fold change vs veh, C9orf123 / RFU, N4BP2L2 / Fold change vs veh, N4BP2L2 / RFU, ARFIP1 / Fold change vs veh, ARFIP1 / RFU, FAM179B / Fold change vs veh, FAM179B / RFU, BCL10 / Fold change vs veh, BCL10 / RFU, UHRF1BP1L / Fold change vs veh, UHRF1BP1L / RFU, BET1 / Fold change vs veh, BET1 / RFU, CNOT2 / Fold change vs veh, CNOT2 / RFU, ZNF268 / Fold change vs veh, ZNF268 / Fold change vs veh, ZNF507 / RFU, DGCR2 / Fold change vs veh, DGCR2 / RFU, WDSUB1 / Fold change vs veh, WDSUB1 / Fold change vs veh, HSP90B1 /// MIR3652 / RFU, ADSS / Fold change vs veh, ADSS / RFU, GK / Fold change vs veh, GK / RFU, ZNF148 / Fold change vs veh, ZNF148 / RFU, TAF9 / Fold change vs veh, TAF9 / RFU, SLC1A5 / Fold change vs veh, SLC1A5 / RFU, SLMO2 / Fold change vs veh, SLMO2 / RFU, ABCC4 / Fold change vs veh, ABCC4 / RFU, LOC101060439 /// RAP1B / Fold change vs veh, LOC101060439 /// RAP1B / RFU, RFX7 / Fold change vs veh, RFX7 / RFU, GTPBP10 / Fold change vs veh, GTPBP10 / RFU, CNEP1R1 / Fold change vs veh, CNEP1R1 / RFU, BIVM-ERCC5 /// ERCC5 / Fold change vs veh, BIVM-ERCC5 /// ERCC5 / RFU, ILF3 / Fold change vs veh, ILF3 / RFU 11762660_at / Fold change /veh 11762660_at / RFU VCAN (11757783_s_at) / Fold change /veh VCAN (11757783_s_at) / RFU DDX43 (11728927_at) / Fold change /veh DDX43 (11728927_at) / RFU KRT8 (11758188_x_at) / Fold change /veh KRT8 (11758188_x_at) / RFU NKD1 (11759106_at) / Fold change /veh NKD1 (11759106_at) / RFU SRD5A1 (11742802_a_at) / Fold change /veh SRD5A1 (11742802_a_at) / RFU TPSAB1 /// TPSB2 (11721975_s_at) / Fold change /veh TPSAB1 /// TPSB2 (11721975_s_at) / RFU GSTM3 (11746129_a_at) / Fold change /veh GSTM3 (11746129_a_at) / RFU IL23R (11737362_x_at) / Fold change /veh IL23R (11737362_x_at) / RFU TMEM51 (11727254_a_at) / Fold change /veh TMEM51 (11727254_a_at) / RFU PIWIL2 (11732686_x_at) / Fold change /veh PIWIL2 (11732686_x_at) / RFU ORM1 (11744905_x_at) / Fold change /veh ORM1 (11744905_x_at) / RFU CCDC152 (11743942_at) / Fold change /veh CCDC152 (11743942_at) / RFU ECM1 (11717891_a_at) / Fold change /veh ECM1 (11717891_a_at) / RFU IL23R (11748794_a_at) / Fold change /veh IL23R (11748794_a_at) / RFU TNFAIP8L3 (11732012_x_at) / Fold change /veh TNFAIP8L3 (11732012_x_at) / RFU MBOAT4 (11741988_at) / Fold change /veh MBOAT4 (11741988_at) / RFU 11764193_at / Fold change /veh 11764193_at / RFU TMEM53 (11763286_at) / Fold change /veh TMEM53 (11763286_at) / RFU MAGEB2 (11727129_at) / Fold change /veh MAGEB2 (11727129_at) / RFU TMEM200A (11744735_a_at) / Fold change /veh TMEM200A (11744735_a_at) / RFU CCDC152 (11751479_a_at) / Fold change /veh CCDC152 (11751479_a_at) / RFU FAM211A (11726209_a_at) / Fold change /veh FAM211A (11726209_a_at) / RFU RGS16 (11746705_a_at) / Fold change /veh RGS16 (11746705_a_at) / RFU VCAN (11755009_s_at) / Fold change /veh VCAN (11755009_s_at) / RFU RHOB (11743442_s_at) / Fold change /veh RHOB (11743442_s_at) / RFU RGS16 (11720943_a_at) / Fold change /veh RGS16 (11720943_a_at) / RFU RGS16 (11720944_at) / Fold change /veh RGS16 (11720944_at) / RFU, VPS4B / Fold change vs veh, VPS4B / RFU, CREB1 / Fold change vs veh, CREB1 / RFU, DNAJC13 / Fold change vs veh, DNAJC13 / RFU, GNAQ / Fold change vs veh, GNAQ / RFU, CDK5R1 / Fold change vs veh, CDK5R1 / RFU, ZRANB3 / Fold change vs veh, ZRANB3 / RFU, CUL4A / Fold change vs veh, CUL4A / RFU, CCNY / Fold change vs veh, CCNY / RFU, UFL1 / Fold change vs veh, UFL1 / RFU, COG3 / Fold change vs veh, COG3 / RFU, DIAPH2 / Fold change vs veh, DIAPH2 / RFU, SKA2 / Fold change vs veh, SKA2 / RFU, AFF3 / Fold change vs veh, AFF3 / RFU, LMF1 / Fold change vs veh, LMF1 / RFU, IPO11 / Fold change vs veh, IPO11 / RFU, DFFB / Fold change vs veh, DFFB / RFU, FOXP1 / Fold change vs veh, FOXP1 / RFU, CARD8 / Fold change vs veh, CARD8 / RFU, STRN3 / Fold change vs veh, STRN3 / RFU, ADK / Fold change vs veh, ADK / RFU, RASSF2 / Fold change vs veh, RASSF2 / RFU, WIPF1 / Fold change vs veh, WIPF1 / RFU, LARP1B / Fold change vs veh, LARP1B / RFU, RASA1 / Fold change vs veh, RASA1 / RFU, RB1 / Fold change vs veh, RB1 / RFU, PPFIA1 / Fold change vs veh, PPFIA1 / RFU, MAT2A / Fold change vs veh, MAT2A / RFU, CCT5 / Fold change vs veh, CCT5 / RFU, WDR92 / Fold change vs veh, WDR92 / RFU, CUX1 / Fold change vs veh, CUX1 / RFU, TTC7A / Fold change vs veh, TTC7A / RFU, TMEM135 / Fold change vs veh, TMEM135 / RFU, DEPTOR / Fold change vs veh, DEPTOR / RFU, CPM / Fold change vs veh, CPM / RFU, DNAJB6 / Fold change vs veh, DNAJB6 / RFU, CACNA2D3 / Fold change vs veh, CACNA2D3 / RFU, DTX4 / Fold change vs veh, DTX4 / RFU, TFCP2 / Fold change vs veh, TFCP2 / RFU, GMCL1 /// GMCL1P1 / Fold change vs veh, GMCL1 /// GMCL1P1 / RFU, AEBP2 / Fold change vs veh, AEBP2 / RFU, SNHG1 /// SNORD22 /// SNORD25 /// SNORD26 /// SNORD27 /// SNORD28 /// SNORD29 /// SNORD31 / Fold change vs veh, SNHG1 /// SNORD22 /// SNORD25 /// SNORD26 /// SNORD27 /// SNORD28 /// SNORD29 /// SNORD31 / Fold change (Aza/veh), C12orf56 (ProbeSet 11735607_a_at) / Fold change (ACY-1035/veh), C12orf56 (ProbeSet 11735607_a_at) / Fold change (Aza/veh), FGFR1OP (ProbeSet 11751329_s_at) / Fold change (ACY-1035/veh), FGFR1OP (ProbeSet 11751329_s_at) / Fold change (Aza/veh), VPS36 (ProbeSet 11739960_a_at) / Fold change (ACY-1035/veh), VPS36 (ProbeSet 11739960_a_at) / RFU SYPL1 (11715823_x_at) / Fold change /veh SYPL1 (11715823_x_at) / RFU IGFBP7 (11715501_s_at) / Fold change /veh IGFBP7 (11715501_s_at) / RFU REEP3 (11722064_at) / Fold change /veh REEP3 (11722064_at) / RFU IGLL1 (11728026_x_at) / Fold change /veh IGLL1 (11728026_x_at): dose or concentration left out as unconfirmed
Details: MV-4-11 cells, 48 hours

Nc1ccc(-c2cccs2)cc1NC(=O)c1ccc2c(c1)cc(C1CC1)n2CCN1CCOCC1 [ACY-1035]
Fold change /veh PRRT2 (11749266_a_at): 1.00
